Where “and” joins values, the source holds several entries; their conditions need not be identical. Identical values can stand only once. Like-named read-outs stand apart in the source and are kept apart here.
Tests used:
[1] = system: MMP-8; conditions: for MMP-8 detected in the root canals: pooled data
Text: 10 patients (11 teeth), with noncontributory medical histories, suffering from apical periodontitis, were selected for the collection of the root canal exudate samples. […] The sample collection was done with the approval of Ethical Committee of Helsinki University Faculty of Medicine, and with the patient's informed consent. The samples were collected during three consecutive appointments with two-week intervals, during which the root canal treatment was completed.
Primary access to the pulp and root canals was made according to regular treatment protocol. The instrumentation of the root canal was started with size 20 or 25 ISO file. X-ray was taken to determine the preparation length. At that time point, a sterile paper point was inserted into the root canal up to the preparation length for two minutes to absorb exudate from the root canal and periapical lesion. The root canals were then instrumented according to standard root canal treatment protocol. Finally, CaOH2 paste was inserted into the canal, and the access cavity was sealed.
After two weeks the root canals were reopened. After quick drying of the canals, a sterile paper point was inserted into the canal for two min for the sample collection. If the canal appeared dry, a drop of sterile saline was inserted to allow the absorption of the sample into the paper point. The root canal was then rinsed, dried and CaOH2 paste was inserted into the canal. After two weeks the procedure for the sample collection was repeated, and the root canals were filled with gutta percha and sealer in normal fashion.
Concentration of MMP-8 in the samples was determined from the elution buffer by a time-resolved immunofluorescence assay as described previously (Hanemaaijer et al., 1997). The monoclonal MMP-8 specific 8708 and 8706 antibodies were used as a catching antibody and tracer antibody, respectively. The tracer antibody was labeled using europium chelate. The assay buffer contained 20 mM Tris-HCl, pH 7.5, 0.5 M NaCl, 5 mM CaCl2, 50 μM ZnCl2, 0.5% bovine serum albumin, 0.5% sodium azide, and 20 mg/l DTPA. Samples were diluted in assay buffer and incubated for one h, followed by incubation for one h with tracer antibody. Enhancement solution was added, and after 5 min fluorescence was measured using a 1234 Delfia Research Fluorometer (Wallac, Turku, Finland).
Kruskall-Wallis 1-way ANOVA was used to analyze the degree of difference in the MMP-8 levels between the different appointments within each sample site.

[2] = obturated after one week of intracanal disinfection; cited from earlier work
[3] = system: bacteria in the canals; conditions: after 1-2 week medication, in most cases; cited from earlier work

[Ca+2].[OH-].[OH-] [Ca(OH)2, calcium hydroxide]
levels of MMP-8 in the exudate ([1]; patients with initially high levels (over 1000 ng/ml), second appointment, after two weeks of treatment): undetectable levels | MMP-8 detected in the root canals ([1]; necrotic teeth, after mechanical preparation and first local medication (2nd visit)): a relatively high amount of MMP-8 was detected | MMP-8 detected in the root canals ([1]; after renewal of the local medication for fortnight (3rd visit)): no longer detected | levels of MMP-8 in the root canal samples ([1]; two other patients with initial value of 0, second appointment): 100 to 1000 ng/mL | teeth that failed to show any healing in the periapical lesion area after one year [2]: 26% and 24% | cultivable bacteria in the canals [3]: no cultivable bacteria

— patent US20030108490A1, “Method and test kit for avoiding long-term failures in root canal treatments” (priority 2000, published 2003)
